Key:
[1] = test system: HCT116 line (human colon cancer cell line); experiment: Antiproliferative (cytotoxic) activity on HCT116 line, ATPLite cell viability, 72 hours; assay type: cell-based; conditions: HCT-116, HCT116, 72 hours after addition, ATPLite, read-out: HCT116 (EC50)
Description: 2.1. Antiproliferative Activity of the Compounds According to the Invention (IC50 in M)
Culture of Lines and Measurement of Cell Viability:
The HCT116 line (ATCC, CCL-247) derived from colon cancer was cultured in MEM (Minimum Essential Medium Eagle) supplemented with 2 mM L-glutamine (Sigma, G7513), 5% fetal calf serum (Sigma, F7524) and antibiotics (Sigma, A59-55). The protocol for determining cytotoxic activity consists in seeding cells on 96-well plates (Perkin Elmer, 6005668) at a density of 1500 cells per well. After 24 hours of incubation, the test compound is applied in each well, using serial dilutions in the solvent dimethylsulfoxide (DMSO) (Sigma, D8418), from 10 mM stock solutions in 100% DMSO. Each dilution was added to the cells 24 hours after seeding. Under these conditions, the final solvent concentration is 0.1% DMSO. A reading of cell proliferation was carried out 72 hours after addition of the products with the ATPLite™ kit (Perkin Elmer, 6016947) and according to the manufacturer's recommendations. The analysis of the proliferation results was carried out by comparison with conditions where only the carrier solvent (culture medium, 0.1% DMSO) was added to the cells. The dose-response curves obtained were analyzed using the PRISM 4.03 software (GraphPad Software Inc.), or by an equivalent analytical method, to determine the concentration of each compound which inhibits 50% of cell proliferation (EC50).
By way of example, the cytotoxic properties of several compounds of the invention evaluated on the HCT116 line (human colon cancer cell line) are reported in Table 1.

[2] = test system: MDA-MB-231 human tumor xenograft; experiment: Antitumor activity, subcutaneous MDA-MB-231 breast cancer xenografts in SCID mice; assay type: in vivo; conditions: for Activity: q1d5 × 3, MDA-MB-231; for Deaths (%): q1d5 × 3, SCID mice
Description: Subcutaneous xenografts were established with MDA-MD-231 breast cancer cells (ATCC: HTB-26) in SCID mice (Harlan, U.K.). The animals were treated and cared after in accordance with the Guide For the Care and Use of Laboratory Animals (National Research Council, 1996) and with European Directive 86/609/EEC, under the supervision of a staff expert authorized to conduct experimental studies with laboratory animals.
All the experiments were conducted pursuant to French and local regulations (Department of Veterinary Services, Haute-Garonne, Toulouse) according to the directives of an ethics committee, based on the UKCCCR Guidelines for the Welfare of Animals in Experimental Neoplasia, as indicated above. The implantation of MDA-MB-231 human tumor fragments is carried subcutaneously in the flanks of SCID mice using a trocar and, for the study of tumor growth, the tumors are allowed to reach a median volume of 70-130 mm^3 before starting the studies.
After randomization in the treatment cages, the inhibitors were administered intravenously according to a g1d5×3 treatment scheme (5 injections per week for 3 weeks). The mice were monitored and weighed daily. The tumors were measured with a slide caliper and the tumor volumes (mm^3) were estimated using the following formula: volume=0.5 (length×width^2). Each experimental group consists of 5 individuals. The efficacy of the treatment was evaluated by analysis of the measurement of the median volume of the treated tumors compared with the median volume of the tumors receiving only carrier (control). The T/C evaluation criterion corresponds to: [(median volume of the treated group, T/median volume of the control group, C)×100]. This T/C ratio is expressed as a percentage. The optimal T/C value corresponds to the ratio which reflects the maximum inhibition of growth obtained during the study. The maximum gains or losses of weight, expressed as a percentage of the initial weight of the animals, as well as the percentage of drug-related deaths (i.e., the percentage of treated animals that died before the assessment) were used to provide an evaluation of the toxicity of the compounds. In accordance with the NCI (National Cancer Institute) criterion, a dose is deemed toxic if it induces weight loss greater than −20% relative to the initial weight of the mouse or if it induces more than 20% deaths (Corbett et al. J Exp Ther Oncol 1996, 1:95-108).

[3] = Mus musculus, MDA-MB-231, iv, read-out: Opt. T/C (%)

## COC(=O)[C@H]1[C@@H](O)[C@@]2(O)c3c(OC)cc(OCCN)cc3O[C@@]2(c2ccc(OC)cc2)[C@@H]1c1ccccc1 (racemic) [Compound 2, rac-(1R,2R,3S,3aR,8bS)-methyl 6-(2-aminoethoxy)-1,8b-dihydroxy-8-methoxy-3a-(4-methoxyphenyl)-3-phenyl-2,3,3a,8b-tetrahydro-1H-cyclopenta[b]benzofuran-2-carboxylate]
[1]
  EC50: 4.03 nM
[2]; 0.2 mg/kg intravenously
  Activity: Active
  Deaths (%): 0%
[2]; [3]
  response vs control in vivo at 0.2 mg/kg: 37%

## COc1ccc([C@@]23Oc4cc(OC)cc(OC)c4[C@]2(O)[C@@H]2OC(=S)N[C@@H]2[C@H]3c2ccccc2)cc1 (racemic) [Compound 46, rac-(3aR,4R,4aR,9bS,9cR)-9b-hydroxy-7,9-dimethoxy-4a-(4-methoxyphenyl)-4-phenyl-3,3a,4,4a,9b,9c-hexahydro-2H-benzofuro[3′,2′:3,4]cyclopenta[1,2-d]oxazole-2-thione]
[1]
  EC50: 2.59 nM
[2]; 1.4 mg/kg intravenously
  Activity: Active
  Deaths (%): 0%
[2]; [3]
  response vs control in vivo at 1.4 mg/kg: 39%

## COC(=O)[C@H]1[C@@H](O)[C@@]2(O)c3c(OC)cc(O[C@@H]4O[C@@H]([C@H](O)CO)CO[C@H]4OC)cc3O[C@@]2(c2ccc(OC)cc2)[C@@H]1c1ccccc1 [silvestrol, reference compound]
[1]
  EC50: 2.46 nM
[2]; 0.2 mg/kg intravenously
  Activity: No activity
  Deaths (%): 0%
[2]; 0.5 mg/kg intravenously
  Activity: No activity
  Deaths (%): 0%
[2]; 0.7 mg/kg intravenously
  Activity: Toxic
  Deaths (%): 40%
[2]; 1 mg/kg intravenously
  Activity: Toxic
  Deaths (%): 100%
[2]; 1.4 mg/kg intravenously
  Activity: Toxic
  Deaths (%): 100%
[2]; [3]
  response vs control in vivo at 0.2 mg/kg: 92%
  response vs control in vivo at 0.5 mg/kg: 83%
  response vs control in vivo at 0.7 mg/kg: 63%
[2]; above a dose of 0.7 mg/kg
  toxicity: highly toxic
[2]; below a dose of 0.7 mg/kg
  antitumor activity: no antitumor activity

Reference: US10519125B2, “Flavagline derivatives” (PIERRE FABRE MEDICAMENT, priority 2014, dated 2019)
